Assay results taken from patent publication US8471005B2 (Cephalon, Inc., priority 2008, dated 2013).
pIC50: −log10 of the molar value. Where two headings read alike, the source gives them in different places.

Columns and labels:
ALK = molecular target: T1, ALK (Homo sapiens, UniProt Q9UM73); assay: ALK Kinase Assay (ELISA/TRF, PLC-γ substrate); type: biochemical; settings: read-out: ALK Potency
T1 construct: host or cells: baculovirus expression system
How it was run: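 Time-resolved fluorescence ELISA using Eu-N1 PT66 antibody to detect phosphorylated PLC-γ (coated at 10 μg/mL). Enzyme at 30 ng/ml ALK; 15 min incubation, 37° C.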

JAK2 = molecular target: T2, JAK2 (Homo sapiens, UniProt O60674); assay: Recombinant Human JAK2 Kinase Assay (TRF); type: biochemical; settings: read-out: JAK2 Potency
T2 construct: host or cells: baculovirus expression system
T2 sequence (O60674 whole entry): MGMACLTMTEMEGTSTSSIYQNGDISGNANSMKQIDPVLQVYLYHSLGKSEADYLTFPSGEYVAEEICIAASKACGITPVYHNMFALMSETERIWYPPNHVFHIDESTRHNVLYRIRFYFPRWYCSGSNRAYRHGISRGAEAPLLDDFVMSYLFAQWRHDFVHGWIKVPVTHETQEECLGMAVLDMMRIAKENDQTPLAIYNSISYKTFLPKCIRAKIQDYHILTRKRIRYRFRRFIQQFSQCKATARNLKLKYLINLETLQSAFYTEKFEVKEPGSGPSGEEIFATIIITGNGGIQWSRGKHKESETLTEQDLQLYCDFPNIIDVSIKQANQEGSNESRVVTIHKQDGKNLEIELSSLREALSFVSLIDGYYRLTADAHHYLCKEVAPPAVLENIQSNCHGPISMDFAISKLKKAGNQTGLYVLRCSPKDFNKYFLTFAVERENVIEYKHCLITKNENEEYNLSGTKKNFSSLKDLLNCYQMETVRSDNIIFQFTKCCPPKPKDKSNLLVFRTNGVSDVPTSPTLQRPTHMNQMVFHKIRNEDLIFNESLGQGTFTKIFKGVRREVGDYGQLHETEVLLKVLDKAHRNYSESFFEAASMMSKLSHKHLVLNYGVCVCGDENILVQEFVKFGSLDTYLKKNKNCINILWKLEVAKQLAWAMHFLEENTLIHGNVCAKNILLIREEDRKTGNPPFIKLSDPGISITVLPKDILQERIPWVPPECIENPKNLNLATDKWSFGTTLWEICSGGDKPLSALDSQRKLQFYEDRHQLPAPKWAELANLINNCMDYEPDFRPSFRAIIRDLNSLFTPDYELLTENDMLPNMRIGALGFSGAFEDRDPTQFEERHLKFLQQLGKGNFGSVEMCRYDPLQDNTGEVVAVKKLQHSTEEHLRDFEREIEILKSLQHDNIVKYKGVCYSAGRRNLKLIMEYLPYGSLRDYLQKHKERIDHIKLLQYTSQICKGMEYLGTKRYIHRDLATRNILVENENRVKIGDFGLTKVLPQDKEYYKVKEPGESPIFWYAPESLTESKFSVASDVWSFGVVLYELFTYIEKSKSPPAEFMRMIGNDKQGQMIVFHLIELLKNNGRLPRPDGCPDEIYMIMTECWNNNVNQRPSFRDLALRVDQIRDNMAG
How it was run: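 Baculovirus-expressed JAK2 (15 ng/ml) phosphorylated a biotinylated 15-mer peptide captured on Neutravidin-coated plates, in 20 mM HEPES pH 7.2 with 0.2 μM ATP, 1 mM MnCl2, 0.1% BSA and 2.5% DMSO. Reaction ran 20 min at room temperature; phosphopeptide was detected by time-resolved fluorescence with Eu-N1-labelled PY100 antibody.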

[1] = ALK kinase inhibition, 1 μM ATP
[2] = JAK2 kinase inhibition, 0.2 μM ATP

T1 sequence (Q9UM73 19-1620): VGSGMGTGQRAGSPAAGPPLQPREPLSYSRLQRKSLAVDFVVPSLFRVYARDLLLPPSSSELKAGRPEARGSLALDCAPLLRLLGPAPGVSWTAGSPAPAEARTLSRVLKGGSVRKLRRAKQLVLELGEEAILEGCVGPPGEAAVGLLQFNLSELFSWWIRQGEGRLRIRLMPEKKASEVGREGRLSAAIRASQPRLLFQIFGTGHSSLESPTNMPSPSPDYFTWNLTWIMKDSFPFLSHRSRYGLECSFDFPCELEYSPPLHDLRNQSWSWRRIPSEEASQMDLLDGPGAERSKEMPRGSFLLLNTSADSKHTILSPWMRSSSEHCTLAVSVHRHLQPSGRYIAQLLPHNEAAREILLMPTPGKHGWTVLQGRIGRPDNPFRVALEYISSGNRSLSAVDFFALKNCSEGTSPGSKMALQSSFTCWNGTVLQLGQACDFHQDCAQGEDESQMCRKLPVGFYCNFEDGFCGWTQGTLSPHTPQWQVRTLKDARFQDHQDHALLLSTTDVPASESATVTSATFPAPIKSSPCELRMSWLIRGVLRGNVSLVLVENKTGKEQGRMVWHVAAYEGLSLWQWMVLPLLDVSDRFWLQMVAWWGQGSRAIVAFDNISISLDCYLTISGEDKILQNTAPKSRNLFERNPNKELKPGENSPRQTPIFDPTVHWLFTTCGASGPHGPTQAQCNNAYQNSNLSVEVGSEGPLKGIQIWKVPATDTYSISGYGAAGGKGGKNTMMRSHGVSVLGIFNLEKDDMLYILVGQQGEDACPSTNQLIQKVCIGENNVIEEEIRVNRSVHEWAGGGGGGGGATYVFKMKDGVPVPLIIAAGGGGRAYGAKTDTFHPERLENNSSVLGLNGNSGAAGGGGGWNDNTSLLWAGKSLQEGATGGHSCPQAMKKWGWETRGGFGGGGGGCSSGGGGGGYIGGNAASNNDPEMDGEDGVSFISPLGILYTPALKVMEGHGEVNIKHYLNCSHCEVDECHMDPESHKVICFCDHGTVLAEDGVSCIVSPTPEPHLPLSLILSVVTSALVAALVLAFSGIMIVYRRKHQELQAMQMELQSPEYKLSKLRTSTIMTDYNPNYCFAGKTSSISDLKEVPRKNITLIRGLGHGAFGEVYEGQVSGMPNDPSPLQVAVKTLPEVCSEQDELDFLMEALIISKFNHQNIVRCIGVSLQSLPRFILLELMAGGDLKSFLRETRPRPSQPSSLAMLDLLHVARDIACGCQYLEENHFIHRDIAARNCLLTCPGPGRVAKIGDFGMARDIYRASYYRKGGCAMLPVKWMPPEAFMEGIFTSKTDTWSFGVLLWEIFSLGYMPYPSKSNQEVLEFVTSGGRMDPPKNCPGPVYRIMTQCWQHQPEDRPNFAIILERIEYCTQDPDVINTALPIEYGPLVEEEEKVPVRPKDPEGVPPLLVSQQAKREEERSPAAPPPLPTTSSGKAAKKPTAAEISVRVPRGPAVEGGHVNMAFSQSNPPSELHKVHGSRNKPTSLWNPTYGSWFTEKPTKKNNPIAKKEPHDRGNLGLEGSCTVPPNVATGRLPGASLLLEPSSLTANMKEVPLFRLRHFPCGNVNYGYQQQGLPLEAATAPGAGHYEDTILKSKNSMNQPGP

pIC50 (ALK; ALK Kinase Inhibition) | pIC50 (JAK2; JAK2 Kinase Inhibition) | pIC50 (ALK; [1]) | pIC50 (JAK2; [2]) | Molecule
– | – | < 5.00 | > 7.00 | COc1ccc(Nc2ncc3cc4ccccc4n3n2)cc1 [Example 752, (4-Methoxy-phenyl)-[1,2,4]triazino[1,6-a]indol-2-yl-amine]
> 7.00 | > 7.00 | – | – | COc1ccc(Cl)cc1-c1ccc2cnc(Nc3ccc(N4CCN(C[C@H](C)O)CC4)cc3)nn12 [Example 203, (S)-1-(4-{4-[7-(5-Chloro-2-methoxy-phenyl)-pyrrolo[2,1-f][1,2,4]triazin-2-ylamino]-phenyl}-piperazin-1-yl)-propan-2-ol]
– | – | 5.00 to 6.00 | > 7.00 | CC(=O)N1CCCCc2ccc(Nc3ncc4ccc(-c5ccccc5N(C)S(C)(=O)=O)n4n3)cc21 [Example 630, N-{2-[2-(1-Acetyl-2,3,4,5-tetrahydro-1H-benzo[b]azepin-8-ylamino)-pyrrolo[2,1-f][1,2,4]triazin-7-yl]phenyl}-N-methylmethanesulfonamide]
5.00 to 6.00 | > 7.00 | – | – | CN1CCN(C(=O)C2CCCN(c3ccc(Nc4ncc5ccc(-c6ccc(S(C)(=O)=O)cc6)n5n4)cc3)C2)CC1 (stereo not shown) [Example 446, (1-{4-[7-(4-Methanesulfonyl-phenyl)-pyrrolo[2,1-f][1,2,4]triazin-2-ylamino]-phenyl}-piperidin-3-yl)-(4-methyl-piperazin-1-yl)-methanone]
– | – | > 7.00 | > 7.00 | CN(c1ccccc1-c1ccc2cnc(Nc3ccc(Cn4ccnc4)cc3)nn12)S(C)(=O)=O [Example 621, N-{2-[2-(4-Imidazol-1-ylmethylphenylamino)-pyrrolo[2,1-f][1,2,4]triazin-7-yl]phenyl}-N-methyl-methanesulfonamide]
– | – | > 7.00 | > 7.00 | COc1cc2c(cc1Nc1ncc3ccc(-c4ccccc4OC)n3n1)CN(CC(N)=O)C2 [Example 864, 2-{5-Methoxy-6-[7-(2-methoxy-phenyl)-pyrrolo[2,1-f][1,2,4]triazin-2-ylamino]-1,3-dihydro-isoindol-2-yl}-acetamide]
– | – | 6.00 to 7.00 | > 7.00 | CCN(CC)C1CCN(c2ccc(Nc3ncc4ccc(-c5ccc(OC)nc5)n4n3)cc2)CC1 [Example 1206, [4-(4-Diethylamino-piperidin-1-yl)-phenyl]-[7-(6-methoxy-pyridin-3-yl)-pyrrolo[2,1-f][1,2,4]triazin-2-yl]-amine]
– | – | > 7.00 | 5.00 to 6.00 | COc1cc(CN2C[C@@H](O)[C@H](O)C2)ccc1Nc1ncc2ccc(-c3ccccc3N(C)S(C)(=O)=O)n2n1 [Example 1236, N-(2-{2-[4-((3R,4R)-3,4-Dihydroxy-pyrrolidin-1-ylmethyl)-2-methoxy-phenylamino]-pyrrolo[2,1-f][1,2,4]triazin-7-yl}-phenyl)-N-methyl-methanesulfonamide]
– | – | 6.00 to 7.00 | 5.00 to 6.00 | COc1cc(N2CCC(N3CCOCC3)CC2)ccc1Nc1ncc2ccc(-c3c(OC)cccc3OC)n2n1 [Example 542, [7-(2,6-Dimethoxy-phenyl)-pyrrolo[2,1-f][1,2,4]triazin-2-yl]-[2-methoxy-4-(4-morpholin-4-yl-piperidin-1-yl)-phenyl]-amine]
– | – | 6.00 to 7.00 | > 7.00 | C[C@H](O)CN1CCC(c2ccc(Nc3ncc4ccc(-c5cccc(N(C)S(C)(=O)=O)c5)n4n3)cc2)CC1 [Example 960, N-[3-(2-{4-[1-((S)-2-Hydroxy-propyl)-piperidin-4-yl]-phenylamino}-pyrrolo[2,1-f][1,2,4]triazin-7-yl)-phenyl]-N-methyl-methanesulfonamide]
> 7.00 | 6.00 to 7.00 | – | – | COc1cc(N2CCCC(N3CCOCC3)C2)ccc1Nc1ncc2ccc(-c3ccccc3OC)n2n1 (stereo not shown) [Example 1444, [2-Methoxy-4-(3-morpholin-4-yl-piperidin-1-yl)-phenyl]-[7-(2-methoxy-phenyl)-pyrrolo[2,1-f][1,2,4]triazin-2-yl]-amine]
5.00 to 6.00 | > 7.00 | – | – | COc1cccnc1-c1ccc2cnc(Nc3ccc(C4CCN(CC(N)=O)CC4)cc3)nn12 [Example 1531, 2-(4-{4-[7-(3-Methoxy-pyridin-2-yl)-pyrrolo[2,1-f][1,2,4]triazin-2-ylamino]-phenyl}-piperidin-1-yl)-acetamide]
– | – | 5.00 to 6.00 | > 7.00 | CC(C)(C)NS(=O)(=O)c1cccc(-c2ccc3cnc(Nc4ccc5cnn(CCN6CCOCC6)c5c4)nn23)c1 [Example 1324, N-tert-Butyl-3-{2-[1-(2-morpholin-4-yl-ethyl)-1H-indazol-6-ylamino]-pyrrolo[2,1-f][1,2,4]triazin-7-yl}-benzenesulfonamide]
5.00 to 6.00 | > 7.00 | – | – | Oc1ccc(-c2ccc3cnc(Nc4ccc(N5CCOCC5)cc4)nn23)cn1 [Example 331, 5-[2-(4-Morpholin-4-yl-phenylamino)-pyrrolo[2,1-f][1,2,4]triazin-7-yl]-pyridin-2-ol]
> 7.00 | > 7.00 | – | – | CN1CCN(c2cccc(Nc3ncc4ccc(-c5cccc(CO)c5)n4n3)c2)CC1 [Example 1557, (3-{2-[3-(4-Methyl-piperazin-1-yl)-phenylamino]-pyrrolo[2,1-f][1,2,4]triazin-7-yl}-phenyl)-methanol]
– | – | > 7.00 | 5.00 to 6.00 | COc1cc(C2CCN(CC(N)=O)CC2)ccc1Nc1ncc2c(O)cc(-c3ccccc3N(C)S(C)(=O)=O)n2n1 [Example 1259, 2-[4-(4-{5-Hydroxy-7-[2-(methanesulfonyl-methyl-amino)-phenyl]-pyrrolo[2,1-f][1,2,4]triazin-2-ylamino}-3-methoxy-phenyl)-piperidin-1-yl]-acetamide]
– | – | > 7.00 | > 7.00 | COc1cc([C@@H]2CCN(CCF)C[C@@H]2O)ccc1Nc1ncc2ccc(-c3ccccc3OC)n2n1 (racemic) [Example 838, (±)-(3R,4S)-1-(2-Fluoro-ethyl)-4-{3-methoxy-4-[7-(2-methoxy-phenyl)-pyrrolo[2,1-f][1,2,4]triazin-2-ylamino]-phenyl}-piperidin-3-ol]
6.00 to 7.00 | > 7.00 | – | – | COc1ccccc1-c1ccc2cnc(Nc3ccc(C(C)C)c(NC(C)=O)c3)nn12 [Example 301, N-{2-Isopropyl-5-[7-(2-methoxy-phenyl)-pyrrolo[2,1-f][1,2,4]triazin-2-ylamino]-phenyl}-acetamide]
6.00 to 7.00 | > 7.00 | – | – | COc1ccc(OC)c(-c2ccc3cnc(Nc4ccc(N5CCOCC5)cc4)nn23)c1 [Example 424, [7-(2,5-Dimethoxy-phenyl)-pyrrolo[2,1-f][1,2,4]triazin-2-yl]-(4-morpholin-4-yl-phenyl)-amine]
– | – | > 7.00 | 6.00 to 7.00 | COc1cc(CCN2CCOCC2)ccc1Nc1ncc2ccc(-c3ccccc3OC)n2n1 [Example 492, [2-Methoxy-4-(2-morpholin-4-yl-ethyl)-phenyl]-[7-(2-methoxy-phenyl)-pyrrolo[2,1-f][1,2,4]triazin-2-yl]-amine]
> 7.00 | 6.00 to 7.00 | – | – | COc1cc(N2CCN(C[C@H](C)O)CC2)c(F)cc1Nc1ncc2ccc(-c3ccccc3N(C)S(C)(=O)=O)n2n1 [Example 1479, N-[2-(2-{5-Fluoro-4-[4-((S)-2-hydroxy-propyl)-piperazin-1-yl]-2-methoxy-phenylamino}-pyrrolo[2,1-f][1,2,4]triazin-7-yl)-phenyl]-N-methyl-methanesulfonamide]
6.00 to 7.00 | > 7.00 | – | – | COc1ccc(-c2ccc3cnc(Nc4cccc(C5(O)CCNCC5)c4)nn23)cn1 [Example 1551, 4-{3-[7-(6-Methoxy-pyridin-3-yl)-pyrrolo[2,1-f][1,2,4]triazin-2-ylamino]-phenyl}-piperidin-4-ol]
– | – | 5.00 to 6.00 | > 7.00 | CCS(=O)(=O)c1cccc(-c2ccc3cnc(Nc4ccc5nc[nH]c5c4)nn23)c1 [Example 1311, (3H-Benzimidazol-5-yl)-[7-(3-ethanesulfonyl-phenyl)-pyrrolo[2,1-f][1,2,4]triazin-2-yl]-amine]
6.00 to 7.00 | > 7.00 | – | – | Clc1cccc(-c2ccc3cnc(Nc4ccc(N5CCCC(N6CCOCC6)C5)cc4)nn23)c1 (stereo not shown) [Example 345, [7-(3-Chloro-phenyl)-pyrrolo[2,1-f][1,2,4]triazin-2-yl]-[4-(3-morpholin-4-yl-piperidin-1-yl)-phenyl]-amine]
5.00 to 6.00 | > 7.00 | – | – | CN(c1ncccc1Nc1ccc2cnc(Nc3ccc(N4CCOCC4)cc3)nn12)S(C)(=O)=O [Example 385, N-Methyl-N-{3-[2-(4-morpholin-4-yl-phenylamino)-pyrrolo[2,1-f][1,2,4]triazin-7-ylamino]-pyridin-2-yl}-methanesulfonamide]
– | – | 5.00 to 6.00 | > 7.00 | CC(=O)N1CCCCc2ccc(Nc3ncc4ccc(-c5cccc(NS(C)(=O)=O)c5)n4n3)cc21 [Example 633, N-{3-[2-(1-Acetyl-2,3,4,5-tetrahydro-1H-benzo[b]azepin-8-ylamino)-pyrrolo[2,1-f][1,2,4]triazin-7-yl]-phenyl}methanesulfonamide]

Molecule | pIC50 (ALK; ALK Kinase Inhibition) | pIC50 (JAK2; JAK2 Kinase Inhibition) | pIC50 (ALK; [1]) | pIC50 (JAK2; [2])
CC(C)(C)OCc1cccc(-c2ccc3cnc(Nc4cccc(N5CCOCC5)c4)nn23)c1 [Example 1560, [7-(3-tert-Butoxymethyl-phenyl)-pyrrolo[2,1-f][1,2,4]triazin-2-yl]-(3-morpholin-4-yl-phenyl)-amine] | < 5.00 | > 7.00 | – | –
CC(=O)Nc1cccc(Nc2ncc3ccc(-c4cccc(COC(C)(C)C)c4)n3n2)c1 [Example 1559, N-{3-[7-(3-tert-Butoxymethyl-phenyl)-pyrrolo[2,1-f][1,2,4]triazin-2-ylamino]-phenyl}-acetamide] | 5.00 to 6.00 | > 7.00 | – | –
4-[2-(4-Morpholin-4-yl-phenylamino)-pyrrolo[2,1-f][1,2,4]triazin-7-yl]-piperidine-1-carboxylic acid tert-butyl ester [Example 1128] | – | – | < 5.00 | > 7.00
